≈ marks a conversion by molar mass, not a printed value. Like-named read-outs stand apart in the source and are kept apart here.
Assays:
M. avium (ATCC 15769) = assay: Antimycobacterial activity; type: cell-based, Mycobacterium avium; conditions: for MIC: Mycobacterium avium
[1] = DPPH free radical scavenging effect; conditions: 1000 μg/ml
Metal chelation effect = conditions: for iron chelation effect: dose amount of 1000 μg/ml
[2] = Iron reduction antioxidant power (FRAP); conditions: 1000 μg/ml
[3] = Phosphomolybdenum reduction antioxidant power (PRAP); conditions: for Phosphomolybdenum Reduction Antioxidant Power (Absorbance at 600 nm ± S.S): 1000 μg/ml
[4] = DMPD radical scavenging effect; conditions: 1000 μg/ml
collagenase = assay: Collagenase enzyme inhibition; type: biochemical
Experimental: Physical properties of the compounds such as efficiency of synthesis reactions and melting points are determined. […] Antidermatophytic activity of the compounds against Trichophyton mentagrophytes var. erinacei, Epidermophyton floccosum and Microsporum gypseum as well as their antimycobacterial activity against Mycobacterium tuberculosis H37Rv (ATCC 27294) and M. avium (ATCC 15769) are analyzed under non-toxic concentrations using MRC-5 and He-La cell lines. Antityrosinase activity thereof is determined by spectrophotometric method using L-DOPA as a substrate. Antioxidant activity is determined by the methods of 2,2-diphenyl-1-picrilhydrasil (DPPH), N,N-dimethyl-p-phenylenediamine (DMPD) radical scavenging activity, metal chelation effect, iron-(FRAP), phosphomolybdenum-(PRAP) reducing antioxidant power. Elastase and collagenase enzyme inhibitions are performed to determine anti-aging activity. Due to their antityrosinase, antioxidant, anti-aging, antidermatophytic and antimycobacterial effects, the compounds may be used in medicine, cosmeceutical, food and textile industry.

elastase = assay: Elastase enzyme inhibition; type: biochemical
Solubility in solvents = type: physicochemical
Experimental: Melting point: 180-1<*>C, Yield: 90%. White powder crystals. Insoluble in water, low-solubility in methanol, ethanol and acetone, and soluble in chloroform.
Melting point 196-7° C., Yield: 93%. White powder crystals. Insoluble in water, methanol, ethanol and acetone, but soluble in chloroform.

tyrosinase = type: biochemical
[5] = ATCC15769, value column 8 of the table, read-out: MIC against M. avium

Compound | DPPH Free Radical Scavenging Effect (Scavenging % ± S.S) [1] [%] | Metal Chelation Effect (Chelation % ± S.S) (Metal chelation effect; 1000 μg/ml) [%] | Iron Reduction Antioxidant Power (Absorbance at 700 nm ± S.S) [2] | antioxidant power of phosphomolybdenum structure [3] [µg/mL] | Phosphomolybdenum Reduction Antioxidant Power (Absorbance at 600 nm ± S.S) [3] | DMPD Radical Scavenging Effect (Scavenging % ± S.S) [4] [%] | Collagenase Enzyme Inhibition (Inhibition % ± S.S) (collagenase; 1000 μg/ml-Stock) [%] | elastase enzyme inhibition (elastase) | also measured
3-Hydmxy-6-(hydmxymethyl)-2-[{4-(2,6 diclorobenzyl)piperazme-1-il]methyl-4H-pyran-4-one [Compound of Formula 2] | 12.20 ± 1.72 | 58.17 ± 0.99 | 0.217 ± 0.002 | 0.187 ± 0.017 | 0.187 ± 0.017 | 24.94 ± 1.64 | 12.40 ± 4.57 | No elastase enzyme inhibition is detected | MIC against M. avium (M. avium (ATCC 15769)): 2 µg/mL; iron chelation effect (Metal chelation effect): 58.17±0.99%; solubility in chloroform (Solubility in solvents): soluble; solubility in methanol, ethanol and acetone (Solubility in solvents): Insoluble; solubility in water (Solubility in solvents): Insoluble
O=C1O[C@H]([C@@H](O)CO)C(O)=C1O [Ascorbic acid] | – | – | – | – | – | 69.58 ± 0.71 | – | – | –
O=c1cc(CO)oc(CN2CCN(Cc3ccc(Cl)c(Cl)c3)CC2)c1O [Compound of Formula 1] | 14.59 ± 2.52 | 67.57 ± 1.30 | 0.274 ± 0.003 | 0.154 ± 0.004 | 0.154 ± 0.004 | 36.05 ± 3.11 | 15.57 ± 2.24 | No elastase enzyme inhibition is detected | IC50 (tyrosinase) (tyrosinase): 11 ± 1 µg/mL; Low-dose antityrosinase activity (tyrosinase; 0.0025 mg/ml): 23.63 ± 1.65; Low-dose antityrosinase activity (tyrosinase; 0.005 mg/ml): 37.81 ± 0.54; Low-dose antityrosinase activity (tyrosinase; 0.01 mg/ml): 51.25 ± 1.09; Low-dose antityrosinase activity (tyrosinase; 0.025 mg/ml): 56.79 ± 0.44; Low-dose antityrosinase activity (tyrosinase; 0.05 mg/ml): 70.62 ± 1.62; Low-dose antityrosinase activity (tyrosinase; 0.1 mg/ml): 73.57 ± 4.81; Low-dose antityrosinase activity (tyrosinase; 0.25 mg/ml): 80.63 ± 2.01; antityrosinase effect, times higher than kojic acid (tyrosinase; relative to kojic acid): 6 times; MIC (M. avium (ATCC 15769); [5]): 2 µg/mL; iron chelation effect (Metal chelation effect): 67.57±1.30%; solubility in chloroform (Solubility in solvents): soluble; solubility in methanol, ethanol and acetone (Solubility in solvents): low-solubility; solubility in water (Solubility in solvents): Insoluble; melting point: 180 to 181 °C
O=C(O)CN(CCN(CC(=O)O)CC(=O)O)CC(=O)O [EDTA, ethylenediaminetetraacetic acid] | – | – | – | – | – | – | – | – | Metal Chelation Effect (Chelation % ± S.S) (Metal chelation effect; 2000 μg/ml): 97.66±0.12%
O=C(O[C@@H]1Cc2c(O)cc(O)cc2O[C@@H]1c1cc(O)c(O)c(O)c1)c1cc(O)c(O)c(O)c1 [EGCG, epigallocatechin gallate] | – | – | – | – | – | – | – | – | Collagenase Enzyme Inhibition (Inhibition % ± S.S) (collagenase; 15 mM): 44.64 ± 2.87%
NNC(=O)c1ccncc1 [Isoniazide] | – | – | – | – | – | – | – | – | MIC (M. avium (ATCC 15769); [5]): 0.125 µg/mL (≈ 0.911 µM)
O=c1cc(CO)occ1O [Kojic Acid, Kojic acid] | 22.51 ± 2.65 | 8.89 ± 0.75 | 0.757 ± 0.026 | 0.103 ± 0.006 | 0.103 ± 0.006 | 41.86 ± 1.10 | 15.18 ± 5.92 | No elastase enzyme inhibition is detected | Low-dose antityrosinase activity (tyrosinase; 0.025 mg/ml): 18.65 ± 1.33; Low-dose antityrosinase activity (tyrosinase; 0.05 mg/ml): 44.74 ± 0.53; Low-dose antityrosinase activity (tyrosinase; 0.1 mg/ml): 61.28 ± 2.03; Low-dose antityrosinase activity (tyrosinase; 0.25 mg/ml): 77.44 ± 0.68; MIC (M. avium (ATCC 15769); ATCC15769, read-out: MIC against M. avium): 16 µg/mL (≈ 113 µM)
O=c1c(O)c(-c2ccc(O)c(O)c2)oc2cc(O)cc(O)c12 [Quercetin, quercetin] | 91.14 ± 0.65 | – | 2.015 ± 0.032 | – | 0.320 ± 0.005 | – | – | – | –

From US9975884B2, “Kojic acid-derived mannich bases with biological effect” (priority 2015, dated 2018)
